Measured values: paper PMC6694196, “Intrinsic tryptophan fluorescence spectroscopy reliably determines galectin-ligand interactions” (Scientific Reports, 2019)
Values joined by “and” are separate entries in the source; they are usually repeats but may differ in a detail not shown here. Identical values can stand only once. “Also recorded” adds a separate entry of the source.

Tests used:
galectin-4C = test system: galectin-4C; design: method as in PMID 15464951, PMID 26077389; conditions: fluorescence anisotropy, LacNAc vs lactose; cited from earlier work
galectin-3 [1] = target: T1, galectin-3 (Homo sapiens, UniProt P17931); experiment: Tryptophan fluorescence spectroscopy (TFS) of galectin-3-ligand interaction; format: binding; conditions: for Kd: galectin-3 10 µM, PBS, 25 °C, One site-Specific binding model; for maximum ligand binding-induced change of intrinsic fluorescence intensity: galectin-3, buffer control titration subtracted; for shift of fluorescence emission maximum to lower wavelength (blue shift): galectin-3, ligand titration
T1 construct: full-length human galectin-3 (residues 1–250, UniProt code: P17931); His-tag (N, cleaved yes); made in house; host or cells: E. coli BL21(DE3)
Protocol: (§1) All tryptophan fluorescence spectroscopy experiments were performed using CARY Eclipse Fluorescence Spectrophotometer (Varian Inc. Santa Clara, California, USA) and a 3 ml quartz cuvette. […] The temperature was maintained constant at 25 °C by an external thermostatic water circulator. […] Control buffer titrations to galectin solutions were performed in parallel for background determination in each experiment. Data from three independent experiments were analysed using nonlinear regression with ‘One Site- Specific Binding’ model (Y = Bmax * X/(KD + X) where X is the ligand concentration, Y is the fluorescence intensity, Bmax is the maximum specific binding and KD is the equilibrium binding constant) in GraphPad Prism 7.04.

galectin-4 [2] = target: T2, galectin-4 (Homo sapiens, UniProt P56470); experiment: ITC of galectin-4-ligand interaction; format: binding; conditions: for binding by ITC (in words): galectin-4 100 µM, 200 mM galactose
T2 construct: 6xHis-SUMO (N, cleaved yes); made in house; host or cells: E. coli BL21(DE3)
T2 sequence (P56470 1-323): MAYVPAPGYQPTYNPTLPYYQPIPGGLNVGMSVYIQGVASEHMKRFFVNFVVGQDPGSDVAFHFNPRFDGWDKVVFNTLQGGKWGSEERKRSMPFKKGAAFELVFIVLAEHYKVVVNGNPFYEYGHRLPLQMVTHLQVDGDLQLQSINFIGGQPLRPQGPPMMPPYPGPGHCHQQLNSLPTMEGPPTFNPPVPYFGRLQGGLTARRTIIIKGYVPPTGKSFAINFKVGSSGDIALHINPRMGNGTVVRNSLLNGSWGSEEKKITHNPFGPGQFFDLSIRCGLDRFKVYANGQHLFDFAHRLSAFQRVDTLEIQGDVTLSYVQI
Protocol: (§2) ITC experiments were performed at 25 °C using a MicroCal iTC200 microcalorimeter (Malvern Analytical Ltd, Malvern, UK) with 200 µl cell capacity and 40 µl injection syringe volume. All galectins were used at 100 µM in PBS and the binding ligands were prepared in identical buffers. […] F3 was titrated into galectin-3 at concentration of 20 mM. Ligand-to-buffer and buffer-to-galectin titrations were performed as controls. Ligands were titrated in 19 injections of 2 µl aliquots with 120 s spacing between injections to allow baseline recovery. The ITC titration data were analysed using MicroCal Data Analysis for iTC200 which is an Origin 7.0-based software programme. A curve fit using the ‘One set of sites’ interaction model was used to determine the association constant (KA), stoichiometry of binding (N) and enthalpy change (∆H) for all the interactions of simple sugars with the galectins except F3, where a logistic fit was used due to the nature of F3 as a mixture of heterogeneous polysaccharides.

[3] = target: T3, galectin-4N (residues 1–152) (Homo sapiens, UniProt P56470); experiment: TFS of galectin-4N-ligand interaction; format: binding; conditions: galectin-4N 5 µM, PBS, 25 °C
T3 construct: N-terminal galectin-4 (galectin-4N, residues 1–152); His-tag (pET47b, HRV3C-cleavable) (cleaved yes); made in house; host or cells: E. coli BL21(DE3)
T3 sequence (P56470 1-152): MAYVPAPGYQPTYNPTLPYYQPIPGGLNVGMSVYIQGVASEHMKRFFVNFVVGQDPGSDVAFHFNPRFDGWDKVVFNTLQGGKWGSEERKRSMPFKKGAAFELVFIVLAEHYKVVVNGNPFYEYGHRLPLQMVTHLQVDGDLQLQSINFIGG
Protocol: as §1, with “circulator. To measure galectin-ligand interactions, recombinant galectin-2 at 20 µM, galectin-3 at 10 µM and galectin-4, -4N and -4C at 5 µM were allowed to equilibrate in PBS for 10–30 minutes under constant stirring before being titrated with testing carbohydrate ligand solutions.” for “circulator.”

galectin-2 [4] = target: T4, galectin-2 (Homo sapiens, UniProt P05162); experiment: TFS of galectin-2-ligand interaction; format: binding; conditions: for blue shift of maximum fluorescence peak: galectin-2; for Kd: galectin-2 20 µM, PBS, 25 °C, mean ± SEM; for maximum ligand binding-induced fluorescence intensity change: galectin-2, buffer titration subtracted
T4 construct: full length human galectin-2 (residues 1–132, UniProt code: P05162); 6xHis-SUMO (N, cleaved yes); made in house; host or cells: E. coli BL21(DE3)
T4 sequence (P05162 1-132): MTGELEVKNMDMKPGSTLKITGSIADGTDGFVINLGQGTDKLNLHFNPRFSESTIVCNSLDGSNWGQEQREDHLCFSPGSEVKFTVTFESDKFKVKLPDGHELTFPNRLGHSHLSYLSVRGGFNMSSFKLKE
Protocol: as §1, with “circulator. To measure galectin-ligand interactions, recombinant galectin-2 at 20 µM, galectin-3 at 10 µM and galectin-4, -4N and -4C at 5 µM were allowed to equilibrate in PBS for 10–30 minutes under constant stirring before being titrated with testing carbohydrate ligand solutions.” for “circulator.”

galectin-3 [5] = target: T1, galectin-3; experiment: Isothermal titration calorimetry (ITC) of galectin-3-ligand interaction; format: binding; conditions: for Kd: galectin-3 100 µM, PBS, 25 °C
Protocol: ITC experiments were performed at 25 °C using a MicroCal iTC200 microcalorimeter (Malvern Analytical Ltd, Malvern, UK) with 200 µl cell capacity and 40 µl injection syringe volume. […] Ligand-to-buffer and buffer-to-galectin titrations were performed as controls. Ligands were titrated in 19 injections of 2 µl aliquots with 120 s spacing between injections to allow baseline recovery. The ITC titration data were analysed using MicroCal Data Analysis for iTC200 which is an Origin 7.0-based software programme.

[6] = target: T5, galectin-4C (residues 153–323) (Homo sapiens, UniProt P56470); experiment: TFS of galectin-4C-ligand interaction; format: binding; conditions: galectin-4C 5 µM, PBS, 25 °C
T5 construct: His-tag (pET47b, HRV3C-cleavable) (cleaved yes); made in house; host or cells: E. coli BL21(DE3)
T5 sequence (P56470 153-323): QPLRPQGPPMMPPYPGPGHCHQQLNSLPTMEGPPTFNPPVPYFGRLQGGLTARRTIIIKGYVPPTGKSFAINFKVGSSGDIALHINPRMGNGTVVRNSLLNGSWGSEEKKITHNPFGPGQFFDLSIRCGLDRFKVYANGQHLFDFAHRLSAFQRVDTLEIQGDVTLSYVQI
Protocol: as §1, with “circulator. To measure galectin-ligand interactions, recombinant galectin-2 at 20 µM, galectin-3 at 10 µM and galectin-4, -4N and -4C at 5 µM were allowed to equilibrate in PBS for 10–30 minutes under constant stirring before being titrated with testing carbohydrate ligand solutions.” for “circulator.”

[7] = target: T5, galectin-4C (residues 153–323); experiment: ITC of galectin-4C-ligand interaction; format: binding; conditions: for binding by ITC (in words): galectin-4C 100 µM
Protocol: as §2

galectin-4 [8] = target: T2, galectin-4; experiment: TFS of galectin-4-ligand interaction; format: binding; conditions: for Kd: full-length galectin-4 5 µM, PBS, 25 °C; for blue shift of maximum fluorescence peak: galectin-4; for maximum ligand binding-induced fluorescence intensity change: galectin-4, control buffer titration deducted
Protocol: as §1, with “circulator. To measure galectin-ligand interactions, recombinant galectin-2 at 20 µM, galectin-3 at 10 µM and galectin-4, -4N and -4C at 5 µM were allowed to equilibrate in PBS for 10–30 minutes under constant stirring before being titrated with testing carbohydrate ligand solutions.” for “circulator.”

galectin-2 [9] = target: T4, galectin-2; experiment: ITC of galectin-2-ligand interaction; format: binding; conditions: for binding by ITC (in words): 200 mM galactose
Protocol: as §2

[10] = target: T3, galectin-4N (residues 1–152); experiment: ITC of galectin-4N-ligand interaction; format: binding; conditions: galectin-4N 100 µM, 200 mM galactose
Protocol: as §2

galectin-4 [11] = target: galectin-4; design: method as in PMID 15546874; conditions: SPR, read-out: binding affinity; cited from earlier work
galectin-2 [12] = target: galectin-2; design: method as in PMID 12223272; conditions: frontal affinity chromatography, read-out: binding affinity; cited from earlier work

T1 sequence (P17931 whole entry, the tested form may be a part): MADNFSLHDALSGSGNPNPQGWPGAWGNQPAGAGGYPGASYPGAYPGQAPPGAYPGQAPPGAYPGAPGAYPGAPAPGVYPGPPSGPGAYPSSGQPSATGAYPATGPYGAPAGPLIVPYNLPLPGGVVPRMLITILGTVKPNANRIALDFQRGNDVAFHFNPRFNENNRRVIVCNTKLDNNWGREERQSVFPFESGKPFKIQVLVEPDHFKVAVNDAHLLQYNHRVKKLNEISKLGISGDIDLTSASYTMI

CC(=O)N[C@H]1C(O)O[C@H](CO)[C@@H](O[C@@H]2O[C@H](CO)[C@H](O)[C@H](O)[C@H]2O)[C@@H]1O (stereo partly drawn) [LacNAc, N-Acetyl-D-lactosamine]
fold weaker binding than lactose (galectin-4C): at least 11 fold | Kd (galectin-3 [1]; mean ± SEM, n=3): 0.0279 ± 0.0046 mM | maximum ligand binding-induced change of intrinsic fluorescence intensity (galectin-3 [1]): 26 units | shift of fluorescence emission maximum to lower wavelength (blue shift) (galectin-3 [1]): 9–10 nm | Kd (galectin-4 [2]; full-length galectin-4 100 µM, PBS, 25 °C, read-out: KD): 3.5 ± 0.5 mM | Kd [3]: 7.4 ± 0.9 mM | blue shift of maximum fluorescence peak (galectin-2 [4]): 10 nm | Kd (galectin-2 [4]; n=3, read-out: KD): 0.654 ± 0.155 mM | maximum ligand binding-induced fluorescence intensity change (galectin-2 [4]): 52 units | enthalpy ∆H of binding (galectin-3 [5]; galectin-3): -16.5 kcal/mol | Kd (galectin-3 [5]; One set of sites model, mean ± SEM, n=3): 0.024 ± 0.0036 mM | difference in enthalpy change to lactose (galectin-3 [5]; galectin-3, LacNAc vs lactose): 4.4 kcal/mol | fold stronger binding than lactose (galectin-3 [5]; galectin-3, LacNAc vs lactose): ~ 4 fold | difference in binding enthalpy to galactose (galectin-3 [5]; galectin-3, weakest ligand galactose to strongest ligand LacNAc): 6.1 kcal/mol | Kd [6]: 12.1 ± 0.7 mM | binding by ITC (in words) [7]: very too weak and mostly beyond detection | Kd (galectin-4 [8]; read-out: KD): 9.3 ± 0.8 mM | blue shift of maximum fluorescence peak (galectin-4 [8]): 5 nm | maximum ligand binding-induced fluorescence intensity change (galectin-4 [8]): 50 units | Kd (galectin-2 [9]; ITC, galectin-2 100 µM, PBS, 25 °C, mean ± SEM, n=3, read-out: KD): 554 ± 108 µM | fold stronger binding than lactose (galectin-2 [9]; ITC, galectin-2, LacNAc vs lactose): ~ 2 fold

O=C[C@H](O)[C@@H](O)[C@@H](O)[C@H](O)CO [galactose, D-galactose]
Kd (galectin-3 [1]): 4.7 mM and ~5 mM | maximum ligand binding-induced change of intrinsic fluorescence intensity (galectin-3 [1]): 28 units | shift of fluorescence emission maximum to lower wavelength (blue shift) (galectin-3 [1]): 9–10 nm | binding by ITC (in words) (galectin-4 [2]): too weak to be determined | binding by ITC (in words) (galectin-4 [2]; listed as Galactose): too weak to be reliably determined | Kd (galectin-4 [2]; galectin-4, Fig. 5I, read-out: KD (class symbol in figure)): > 1 mM | Kd [3]: 43.3 ± 5.2 mM | Kd (galectin-2 [4]; KD, n=3): 35.6 mM and 30 to 40 mM | blue shift of maximum fluorescence peak (galectin-2 [4]): 6 nm | maximum ligand binding-induced fluorescence intensity change (galectin-2 [4]): 57 units | Kd (galectin-3 [5]; One set of sites model (F3: logistic fit)): 3.1 ± 1.1 mM | binding by ITC (in words) [10]: very little, if any, binding taking place; also recorded: very too weak and mostly beyond detection | Kd [6]: 33.8 ± 3 mM | binding by ITC (in words) [7]: very too weak and mostly beyond detection | Kd ([7]; galectin-4C, Fig. 7G,I, read-out: KD (class symbol in figure)): > 1 mM | Kd (galectin-4 [8]; KD): 33.6 mM and 30 to 40 mM | blue shift of maximum fluorescence peak (galectin-4 [8]): 4 nm | maximum ligand binding-induced fluorescence intensity change (galectin-4 [8]): 80 units | Kd (galectin-2 [9]): > 1000 µM | binding by ITC (in words) (galectin-2 [9]; ITC, galectin-2 100 µM): too weak to be determined | binding by ITC (in words) (galectin-2 [9]; ITC, galectin-2 100 µM, listed as Galactose): too weak to be reliably determined

α-lactose
Kd (galectin-4 [11]): 860 µM | maximum ligand binding-induced change of intrinsic fluorescence intensity (galectin-3 [1]): 21 units | shift of fluorescence emission maximum to lower wavelength (blue shift) (galectin-3 [1]): 9–10 nm | Kd (galectin-2 [12]): 1.1 mM | blue shift of maximum fluorescence peak (galectin-2 [4]): 7 nm | maximum ligand binding-induced fluorescence intensity change (galectin-2 [4]): 59 units | blue shift of maximum fluorescence peak (galectin-4 [8]): 10 nm | maximum ligand binding-induced fluorescence intensity change (galectin-4 [8]): 49 units
